This assay concerns KHOS-240S. The assay is described as follows: relative viability vs DMSO control (72 h) (fraction); higher = more viable cells. The method, boiled down: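 A 5 µM positive control and 0.1% DMSO vehicle ran alongside sarcoma cell lines seeded in 384-well plates to reach 80–90% confluence. Serially diluted compound, 2.5 µl from source plates of 10 mM to 0.0002 mM, was added after 24 h, and the plates were held 72 h at 37 °C, 5% CO2. Relative viability was worked out from ATPLite readings as percent growth averaged over up to triplicate wells. The values were rescaled so that 1 is full and 0 is none.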

Each structure is given as a SMILES string. ± gives the standard deviation of the averaged measurements.

The values that follow come from the supplement of paper PMC10883282.

For the molecule `C[C@]1(O)C[C@@H](c2nc(-c3ccc4ccc(-c5ccccc5)nc4c3)c3c(N)nccn32)C1` [Linsitinib], the relative viability runs as follows: (0.00017 µM) 1.08 ± 0.029; (0.00051 µM) 1.1 ± 0.054; (0.00152 µM) 1.08 ± 0.026; (0.00457 µM) 1.07 ± 0.045; (0.01372 µM) 1.07 ± 0.025; (0.04115 µM) 1.07 ± 0.048. For the same molecule, the relative viability is, setting by setting: (0.1235 µM) 0.992 ± 0.018; (0.3704 µM) 0.917 ± 0.018; (1.111 µM) 0.911 ± 0.026; (3.333 µM) 0.845 ± 0.036; (10 µM) 0.56 ± 0.0069.

For the molecule `C=CC(=O)N1CCC([C@@H]2CCNc3c(C(N)=O)c(-c4ccc(Oc5ccccc5)cc4)nn32)CC1` [Zanubrutinib], the relative viability reads like this: (0.00017 µM) 0.952 ± 0.026; (0.00051 µM) 0.946 ± 0.032; (0.00152 µM) 0.962 ± 0.02; (0.00457 µM) 0.9655 ± 0.007; (0.01372 µM) 0.936 ± 0.043; (0.04115 µM) 0.962 ± 0.021. Moreover, the relative viability reads like this: (0.1235 µM) 0.957 ± 0.022; (0.3704 µM) 0.935 ± 0.037; (1.111 µM) 0.901 ± 0.047; (3.333 µM) 0.85 ± 0.065; (10 µM) 0.839 ± 0.019.

Consider `Cn1cc(-c2cc3c(N4CCN(c5ncc([C@@](C)(N)c6ccc(F)cc6)cn5)CC4)ncnn3c2)cn1` [Avapritinib], for which the relative viability (0.00017 µM) amounted to 1.03 ± 0.022; the relative viability (0.00051 µM) was found to be 1.025 ± 0.0056; the relative viability (0.00152 µM) is 1 ± 0.039; the relative viability (0.00457 µM) amounted to 0.992 ± 0.038; the relative viability (0.01372 µM) stood at 1.02 ± 0.033; the relative viability (0.04115 µM) came out at 1.01 ± 0.014. Also, the relative viability is, setting by setting: (0.1235 µM) 0.965 ± 0.024; (0.3704 µM) 0.943 ± 0.021; (1.111 µM) 0.84 ± 0.026; (3.333 µM) 0.783 ± 0.027; (10 µM) 0.656 ± 0.025.

Regarding `CC(=O)Nc1cccc(-n2c(=O)n(C3CC3)c(=O)c3c(Nc4ccc(I)cc4F)n(C)c(=O)c(C)c32)c1` [Trametinib], the relative viability by setting is: (0.00017 µM) 1.07 ± 0.038; (0.00051 µM) 1.07 ± 0.014; (0.00152 µM) 1.04 ± 0.027; (0.00457 µM) 1.02 ± 0.057; (0.01372 µM) 0.876 ± 0.04; (0.04115 µM) 0.764 ± 0.029. In addition, the relative viability amounted to 0.719 ± 0.028 (0.1235 µM); 0.717 ± 0.05 (0.3704 µM); 0.731 ± 0.023 (1.111 µM); 0.666 ± 0.01 (3.333 µM); 0.641 ± 0.017 (10 µM).
